Columns and labels:
[1] = molecular target: T1, FGFR1 (Homo sapiens, UniProt P11362); assay: AlexaFluor488-FGF2 binding on FGFR1-transfected 300-19 cells (flow cytometry); details: SSR 300 nM; FGF2 10 ng/ml; murine pre-B 300-19 cells
T1 construct: V5/His (encoded by the vector); expressed in transfected cells; host or cells: murine pre-B 300-19 cells
Method: FGF2 was labeled with Alexa Fluor 488 C5-maleimide (Invitrogen, A10254) following purchaser recommendations.
This AF488-FGF2 was used at 10 ng/ml in binding experiments on murine pre-B 300-19 cells transfected with FGFR1 or FGFR4 constructs in pEF6-V5/His Topo plasmids (Invitrogen). SSR (300 nM final) was pre-incubating 20 min with cells in RPMI 1640 (Invitrogen, 32404-014) with 10% FCS (Hyclone, SH30070.03), 2 mM glutamine, MEM non-essential amino-acid 1× (Gibco, 11140-035), MEM sodium pyruvate 1× (Gibco, 11360-039) and […] monothioglycerol (Sigma, M6145) at 4° C. under 150 rpm agitation. Then, FGF2 (10 ng/ml final) is added for 30 min and binding is measured using a FACS Calibur flow cytometer (Beckton Dickinson). Fluorescence median for each condition is also analysed.

[2] = system: FGFR2; assay: FRS2, Erk1/2 and PLCγ phosphorylation in FGFR2-transfected HEK293 cells (western blot); type: cell-based, human; details: compound at 1 μM
Method: HEK293 cells were either transiently of stably transfected (using FuGENE 6, Roche) with hFGFR2IIIca or hFGFR2IIIca-Y328D cloned in pcDNA3 (Invitrogen). Stably transfected cells were grown in G418 (400 μg/ml) containing medium. Before stimulation, the cells were starved overnight in DMEM (0% serum), and pre-incubated with […] at the required concentration. The cells were subsequently stimulated with FGF2 (concentration between 0.5-10 ng/ml) for 5 min at 37° C. with or without SSR or SU5402 at 1 μM. After washing with ice-cold phosphate-buffered saline containing phosphatase inhibitors (Roche), cells were lysed in RIPA buffer (Tris 30 mM HCl pH 7.5, 150 mM NaCl, 1 mM EDTA, 1% triton-X, 0.5% w/v deoxycholate, containing phophatase and protease inhibitors as described by the manufacturer (Roche)). Cell lysates were centrifuged at 12,000 g for 10 min, and the supernatants were collected. Proteins were separated on Novex polyacrylamide gels (Invitrogen, Carlsbad, Calif.) and subsequently transferred onto Hybond ECL nitrocellulose membranes (Amersham Pharmacia). Following incubation with 5% non-fat milk powder in PBS, the membranes were incubated overnight at 4° C. with the following antibodies: phospho-ERK1/2 (CST:9101), phospho-FRS2 (CST:3861), phospho-PLCγ (CST:2821) and FGFR2 (F0300, Sigma).
In order to evaluate SSR effect on FGFR-controlled phosphor-signalling, HEK293 cells have been transfected with FGFR2 and the two main pathways following FGFR autophosphorylation, PLCγ and FRS2, have been studied by western blot in comparison with a published FGFR tyrosine kinase inhibitor SU5402 described to inhibit FGFR-dependent FRS2 and PLCγ cascades (Zhen et al., Oncogene 2007). In such cells, FGF induces FRS2, Erk1/2 and PLCγ phosphorylation. […] More generally, these differences in phosphorylation can be used as reporter to evaluate allosteric modulators.

[3] = system: PANC02 cells; assay: PANC02 proliferation; type: cell-based; details: 100 nM SSR; 100 ng/ml FGF7 with or without VEGF; FGFR2-IIIb
Method: Cell proliferation was analysed on exponentially growing cells that were starved for 16 hours in 100 μl RPMI 1640 (Invitrogen, 32404-014) with 0.2% FBS (Hyclone, SH30070.03), 2 mM glutamine, MEM non-essential amino-acid 1× (Gibco, 11140-035), MEM sodium pyruvate 1× (Gibco, 11360-039) and seeded at 4,000 cells/well in 96-well microplates. After exposure to mitogens and/or SSR for 72 hours, cell proliferation was assessed with the use of the CellTiter 96 AQueous One Solution Cell Proliferation Assay (Promega, Madison, Wis., USA) according to manufacturer's instructions. Cell migration was assessed by a modified Boyden chamber assay, by using 24-well inserts containing 8 μm pore size transwell permeable supports with a polycarbonate membrane (Costar, Corning Inc.). Exponentially growing cells were starved in 0.2% FBS containing medium for 16 hours and resuspended at 5×10^5 cells/ml in the same low serum medium. 100 μl of the cell suspension were seeded in the upper chamber, while chemoattractants and/or SSR were placed in the lower chamber. 10% FBS containing medium was used a positive control. After 6 hours incubation at 37° C., cells on the upper side of the membrane were scraped using a cotton swab, while migrated cells on the lower surface were fixed with 4% formaldehyde and nuclei stained with DAPI for quantification.

[4] = molecular target: T2, FGFR2^∂123 (Homo sapiens, UniProt P21802); assay: anisotropy measurement, FGF1-lumio binding to FGFR2 ECD without Fc-tag; details: >1,000 fold molar excess of SSR; FGF1-lumio 1 μM
T2 construct: we purified the entire extracellular domain of FGFR2 without Fc-tag (FGFR2^∂123); made in house
T2 sequence (P21802 22-377 limits assumed): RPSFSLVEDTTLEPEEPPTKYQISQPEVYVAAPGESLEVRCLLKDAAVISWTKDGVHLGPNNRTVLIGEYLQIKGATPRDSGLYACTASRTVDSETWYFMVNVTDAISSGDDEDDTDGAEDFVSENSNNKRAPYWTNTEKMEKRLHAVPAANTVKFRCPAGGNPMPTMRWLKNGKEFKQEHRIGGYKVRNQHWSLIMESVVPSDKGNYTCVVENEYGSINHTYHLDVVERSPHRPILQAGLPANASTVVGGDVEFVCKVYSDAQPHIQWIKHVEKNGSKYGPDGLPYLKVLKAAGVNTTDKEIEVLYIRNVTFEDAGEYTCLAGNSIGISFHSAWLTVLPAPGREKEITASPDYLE
Method: To assess whether SSR inhibits the binding of FGF1 to its binding pocket, we purified the entire extracellular domain of FGFR2 without Fc-tag (FGFR2^∂123) and measured the tumbling speed (as a parameter of anisotropy) of a fluorescent lumio-tagged FGF1 (FGF1-lumio; constant concentration of 1 μM) in the presence of varying concentrations of FGFR2^∂123 without (blue) or with (red) SSR (1 mM). When FGFR2^∂123 was added to FGF1-lumio, the tumbling speed of the ligand/receptor complex was slower than of FGF-lumio alone, because of its larger size.
One hallmark of allosteric interactions is the phenomenon of ‘probe-dependence’ i.e., variations in the magnitude and direction of an allosteric interaction depending on the nature of the orthosteric ligand-receptor complex with which the modulator is interacting (May et al., 2007). To determine whether the effects of SSR on ^125I-FGF2 binding in the SPA were dependent on the configuration of the engineered FGFR/Fc fusion protein plated on an artificial substrate, we next studied whether SSR inhibited the binding of a fluorescent lumio-tagged FGF1 (FGF1-lumio) to a purified ECD of FGFR2 without the Fc-tag (FGFR2^∂123), by measuring the tumbling speed as a parameter of anisotropy. When FGFR2^∂123 was added to FGF1-lumio, the tumbling speed of the ligand/receptor complex was slower than of FGF-lumio alone because of its larger size. […]

[5] = system: various FGFRs; assay: additional SPA assays, FGF ligands to various FGFRs; type: binding

T1 sequence (P11362 22-822): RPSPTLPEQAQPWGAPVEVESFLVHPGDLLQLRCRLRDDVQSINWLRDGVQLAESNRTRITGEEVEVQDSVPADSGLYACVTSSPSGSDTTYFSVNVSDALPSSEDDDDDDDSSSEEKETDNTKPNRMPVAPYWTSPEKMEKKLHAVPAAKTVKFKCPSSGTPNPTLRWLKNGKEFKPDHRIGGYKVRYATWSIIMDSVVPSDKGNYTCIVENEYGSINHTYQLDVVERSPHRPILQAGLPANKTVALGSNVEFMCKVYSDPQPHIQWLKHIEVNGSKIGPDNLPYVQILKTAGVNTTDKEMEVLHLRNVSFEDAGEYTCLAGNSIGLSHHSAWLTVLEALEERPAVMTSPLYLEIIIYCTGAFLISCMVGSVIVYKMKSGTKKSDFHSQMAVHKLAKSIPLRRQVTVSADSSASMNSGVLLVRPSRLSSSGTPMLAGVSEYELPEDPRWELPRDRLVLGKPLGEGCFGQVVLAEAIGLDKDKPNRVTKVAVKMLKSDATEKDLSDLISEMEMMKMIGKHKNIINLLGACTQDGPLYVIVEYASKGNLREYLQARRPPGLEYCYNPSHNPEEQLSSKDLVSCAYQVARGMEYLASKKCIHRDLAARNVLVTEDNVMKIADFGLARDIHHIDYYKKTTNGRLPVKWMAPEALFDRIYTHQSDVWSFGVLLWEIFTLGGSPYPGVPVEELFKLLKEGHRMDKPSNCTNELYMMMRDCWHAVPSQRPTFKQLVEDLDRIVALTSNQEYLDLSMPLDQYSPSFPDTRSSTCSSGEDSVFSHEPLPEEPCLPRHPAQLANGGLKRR

In the case of `COc1c(C)c(C(=O)c2ccc(N)c(C(=O)[O-])c2)n2ccccc12.[Na+]` [SSR], the “competition with AlexaFluor488-labelled FGF2 binding to FGFR1” value [1] was “not able to compete this binding”, the “FGF-induced FRS2 phosphorylation” value [2] was “only inhibits FRS2 pathway” and the “FGF-induced PLCγ phosphorylation” value [2] was “doesn't inhibit”. The “FGF7-induced PANC02 proliferation” value [3] was “blocked”, the “tumbling speed (anisotropy) of FGF1-lumio/FGFR2^∂123 complex” value [4] was “failed to alter the tumbling speed of the complex” and the “binding of different FGF ligands to various FGFRs” value [5] was “blocking the binding of different FGF ligands to various FGFRs”.
